Where “and” joins values, the source holds several entries; their conditions need not be identical. Identical values can stand only once.
What was measured:
[1] = tested on: procollagen I; assay: In vitro skin biomarker test, procollagen I ELISA in MatTek human skin equivalent; assay type: cell-based; conditions: average of cultures, 24 hours after treatment; Glyco-Repair 3% topical, TGF-b 2 ng/mL in media
Protocol: (§1) The model used in the test is a MatTek™ brand human skin equivalent available from the MatTek Corporation, which is a full thickness culture system that emulates normal human skin properties and function. The MatTek™ brand skin model contains a three-dimensional, highly differentiated human epidermis with 8-12 cell layers including basal, spinous, granular and stratum corneum layers. The epidermis is grown above a human dermal fibroblast-containing collagen matrix. The skin model is configured to permit the topical application of test materials to the stratum corneum surface of the model. The skin model cultures are supplied in 24-well plate. Each well of the plate includes a snap-well fitting and the skin culture in a media-supplemented agarose gel.
(§2) Prior to testing, the skin model cultures are examined for visual defects and equilibrated overnight at 37° C., 5% CO2, and 95% RH. The skin cultures were transferred to fresh 24-well plates by removing the snap-well fitting along with the skin culture and placing it in a well of the new plate. […]
(§3) Twenty-four hours after treatment, the skin cultures were removed from the incubator and visually inspected for defects (e.g., to see if media leaked up through the culture insert). […] The supernatant was collected and analyzed with a Micro BCA kit to quantitate protein concentration. […]

[2] = tested on: hyalauronic acid; assay: In vitro skin biomarker test, hyalauronic acid ELISA in MatTek human skin equivalent; assay type: cell-based; conditions: 24 hours after treatment, Glyco-Repair 3% topical, TGF-b 2 ng/mL in media
Protocol: as §1, §2, §3

transforming growth factor beta [TGF-b]
Avg Normalized Protein (procollagen I) [1]: 29.8 | Avg (normalized protein, hyalauronic acid) ([2]; average of cultures): 2.8 | HA ([2]; single skin cultures): 562 ng/mL and 480 ng/mL and 598 ng/mL and 545 ng/mL and 568 ng/mL

— patent publication US20130280187A1, “Compositions and Methods for Improving the Appearance of Facial Pores” (THE PROCTER & GAMBLE COMPANY, priority 2012, published 2013)
